Ki data for 7 molecules are collected here from ChEMBL document CHEMBL6083214, “Synthesis, biochemical screening and in-silico investigations of arylsulfonamides bearing linear and cyclic tails” (Bioorg Med Chem Lett, 2024).

pKi: −log10 of the molar value.

Test [1] has as its target Carbonic anhydrase 12 (Homo sapiens, UniProt O43570).
Description: Inhibition of human carbonic anhydrase XII assessed as inhibition constant by stopped-flow carbon dioxide hydrase assay
The target of test [2] is Carbonic anhydrase 2 (Homo sapiens, UniProt P00918).
Description: Inhibition of human carbonic anhydrase II assessed as inhibition constant by stopped-flow carbon dioxide hydrase assay
Test [3] addresses Carbonic anhydrase 1 (Homo sapiens, UniProt P00915).
Description: Inhibition of human carbonic anhydrase I assessed as inhibition constant by stopped-flow carbon dioxide hydrase assay
For test [4], the target named is Carbonic anhydrase 9 (Homo sapiens, UniProt Q16790).
Description: Inhibition of human carbonic anhydrase IX assessed as inhibition constant by stopped-flow carbon dioxide hydrase assay

Chain of Carbonic anhydrase 12 (O43570 whole entry): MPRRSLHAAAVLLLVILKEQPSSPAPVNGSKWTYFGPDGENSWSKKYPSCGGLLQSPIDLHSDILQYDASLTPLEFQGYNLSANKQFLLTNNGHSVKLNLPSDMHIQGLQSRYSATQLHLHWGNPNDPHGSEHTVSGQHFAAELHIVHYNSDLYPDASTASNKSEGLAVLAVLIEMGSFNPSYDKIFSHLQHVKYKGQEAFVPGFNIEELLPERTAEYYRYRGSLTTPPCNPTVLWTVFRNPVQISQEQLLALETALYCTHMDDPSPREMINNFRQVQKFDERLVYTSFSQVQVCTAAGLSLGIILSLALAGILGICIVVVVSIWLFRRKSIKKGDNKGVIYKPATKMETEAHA
Chain of Carbonic anhydrase 1 (P00915 whole entry): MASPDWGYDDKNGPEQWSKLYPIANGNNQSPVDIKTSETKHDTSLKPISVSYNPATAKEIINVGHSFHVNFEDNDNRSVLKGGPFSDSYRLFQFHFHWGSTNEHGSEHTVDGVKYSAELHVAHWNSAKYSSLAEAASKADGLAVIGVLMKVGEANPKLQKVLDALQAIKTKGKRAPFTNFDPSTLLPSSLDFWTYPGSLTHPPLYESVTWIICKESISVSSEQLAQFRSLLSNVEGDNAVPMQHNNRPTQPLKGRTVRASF

A word on the pKi: it is the Ki on a negative log10 scale, so that one unit is a factor of ten. Read a high pKi as a low Ki. Consider `N#Cc1ccc(C2SCCC(=O)N2c2ccc(S(N)(=O)=O)cc2)cc1` (racemic), for which the pKi in test [1] is 7.05; in test [2] it was 8.09; in test [3], 8.07; in test [4], 8.43.
In turn, `NS(=O)(=O)c1ccc(/N=C/c2ccc([N+](=O)[O-])cc2)cc1` gave a pKi in test [2] of 7.59.
Consider `NS(=O)(=O)c1ccc(N2C(=O)CCSC2c2ccc(Cl)cc2)cc1` (racemic), for which the pKi in test [1] is 8.09; in test [2], 8.05; in test [3], 7.20; in test [4], 7.70.
For the molecule `NS(=O)(=O)c1ccc(N2C(=O)CCSC2c2ccc([N+](=O)[O-])cc2)cc1` (racemic), the pKi in test [1] is 8.15; in test [2], 7.10; in test [3], 7.08; in test [4], 7.26.
Turning to `N#Cc1cccc(C2SCCC(=O)N2c2ccc(S(N)(=O)=O)cc2)c1` (racemic), the pKi is 7.21 in test [1], 7.84 in test [2], 8.14 in test [3] and 7.72 in test [4].
On to `NS(=O)(=O)c1ccc(/N=C/c2ccc(Cl)cc2)cc1`, for which the pKi in test [2] was 7.65.
Take `NS(=O)(=O)c1ccc(N2C(=O)CCSC2c2ccc(F)cc2)cc1` (racemic): the pKi is 8.03 in test [1], 8.11 in test [2], 7.87 in test [3] and 7.13 in test [4].
